Experimental data reported in PubChem BioAssay (NCI).
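Five concentrations, 48 hours, 96-well plates. The concentration for 50% growth inhibition is given as GI50. The concentration for full growth arrest is given as TGI.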

Assays:
Assay in all cases: DTP human tumour cell line panel, 48 h
SW-620 colon = system: SW-620 colon
EKVX NSCLC = system: EKVX NSCLC
COLO 205 colon = system: COLO 205 colon
HT29 colon = system: HT29 colon
BT-549 breast = system: BT-549 breast
SK-MEL-28 melanoma = system: SK-MEL-28 melanoma
RXF 393 renal = system: RXF 393 renal
NCI-H23 lung = system: NCI-H23 lung
CAKI-1 renal = system: CAKI-1 renal
A498 renal = system: A498 renal
SK-OV-3 ovarian = system: SK-OV-3 ovarian
SR leukemia = system: SR leukemia
UACC-62 melanoma = system: UACC-62 melanoma
ACHN renal = system: ACHN renal
TK-10 renal = system: TK-10 renal
OVCAR-8 ovarian = system: OVCAR-8 ovarian
KM12 colon = system: KM12 colon
MCF7 breast = system: MCF7 breast
PC-3 prostate = system: PC-3 prostate
T-47D breast = system: T-47D breast
OVCAR-5 ovarian = system: OVCAR-5 ovarian
M14 melanoma = system: M14 melanoma
HS 578T breast = system: HS 578T breast
OVCAR-4 ovarian = system: OVCAR-4 ovarian
NCI-H522 lung = system: NCI-H522 lung
LOX IMVI melanoma = system: LOX IMVI melanoma
IGROV1 ovarian = system: IGROV1 ovarian
A549 NSCLC = system: A549 NSCLC
HCT-15 colon = system: HCT-15 colon
HL-60(TB) leukemia = system: HL-60(TB) leukemia
HOP-92 NSCLC = system: HOP-92 NSCLC
SF-539 CNS = system: SF-539 CNS
MDA-MB-231 breast = system: MDA-MB-231 breast
OVCAR-3 ovarian = system: OVCAR-3 ovarian
NCI-H460 lung = system: NCI-H460 lung
SNB-75 CNS = system: SNB-75 CNS
SNB-19 CNS = system: SNB-19 CNS
SF-295 CNS = system: SF-295 CNS
K-562 leukemia = system: K-562 leukemia
UACC-257 melanoma = system: UACC-257 melanoma
SK-MEL-5 melanoma = system: SK-MEL-5 melanoma
SK-MEL-2 melanoma = system: SK-MEL-2 melanoma
U251 CNS = system: U251 CNS
HCT-116 colon = system: HCT-116 colon
HCC-2998 colon = system: HCC-2998 colon
RPMI-8226 leukemia = system: RPMI-8226 leukemia
MOLT-4 leukemia = system: MOLT-4 leukemia
DU-145 prostate = system: DU-145 prostate
SN12C renal = system: SN12C renal
SF-268 CNS = system: SF-268 CNS
MDA-MB-435 = system: MDA-MB-435
CCRF-CEM leukemia = system: CCRF-CEM leukemia
MALME-3M melanoma = system: MALME-3M melanoma
HOP-62 NSCLC = system: HOP-62 NSCLC
NCI-H226 lung = system: NCI-H226 lung
MDA-N = system: MDA-N
786-0 renal = system: 786-0 renal
NCI/ADR-RES ovarian = system: NCI/ADR-RES ovarian

In the case of `CC(=O)OCc1cnc2c3c(nc4ccccc4c13)C(=O)c1cccnc1-2`, the GI50 (SW-620 colon) is reported as less than 0.0113 µM, the TGI (SW-620 colon) is reported as 0.5 µM and the GI50 (EKVX NSCLC) is reported as 0.187 µM. The TGI (EKVX NSCLC) was 2.6 µM, the GI50 (COLO 205 colon) was 0.321 µM and the TGI (COLO 205 colon) was 1.01 µM. For the same compound, the GI50 (HT29 colon) was 0.193 µM, the TGI (HT29 colon) was 0.634 µM and the GI50 (BT-549 breast) was 0.15 µM. The TGI (BT-549 breast) was 1.76 µM, the GI50 (SK-MEL-28 melanoma) was 0.174 µM and the TGI (SK-MEL-28 melanoma) was 0.614 µM. It also gave a GI50 (RXF 393 renal) of less than 0.0343 µM, a TGI (RXF 393 renal) of 0.841 µM and a GI50 (NCI-H23 lung) of 0.118 µM. For the same compound, the TGI (NCI-H23 lung) was 0.612 µM, the GI50 (CAKI-1 renal) was less than 0.01 µM and the TGI (CAKI-1 renal) was 0.15 µM. For the same compound, the GI50 (A498 renal) was 0.162 µM, the TGI (A498 renal) was 0.79 µM and the GI50 (SK-OV-3 ovarian) was 0.05 µM. It also gave a TGI (SK-OV-3 ovarian) of 0.874 µM, a GI50 (SR leukemia) of less than 0.01 µM and a TGI (SR leukemia) greater than 100 µM. It also gave a GI50 (UACC-62 melanoma) of 0.135 µM, a TGI (UACC-62 melanoma) of 0.403 µM and a GI50 (ACHN renal) of less than 0.01 µM. For the same compound, the GI50 (TK-10 renal) was 0.0573 µM, the TGI (TK-10 renal) was 0.42 µM and the GI50 (OVCAR-8 ovarian) was 0.0115 µM. The TGI (OVCAR-8 ovarian) was 0.109 µM, the GI50 (KM12 colon) was 0.167 µM and the TGI (KM12 colon) was 0.504 µM. It also gave a GI50 (MCF7 breast) of less than 0.0118 µM, a TGI (MCF7 breast) of 0.0904 µM and a GI50 (PC-3 prostate) of 0.133 µM. The TGI (PC-3 prostate) was 2.42 µM, the GI50 (T-47D breast) was 0.827 µM and the TGI (T-47D breast) was 10.5 µM. It also gave a GI50 (OVCAR-5 ovarian) of 0.435 µM, a TGI (OVCAR-5 ovarian) of 2.23 µM and a GI50 (M14 melanoma) of 0.0255 µM. The TGI (M14 melanoma) was 0.125 µM, the GI50 (HS 578T breast) was 0.271 µM and the TGI (HS 578T breast) was 1.33 µM. For the same compound, the GI50 (OVCAR-4 ovarian) was 0.0329 µM, the TGI (OVCAR-4 ovarian) was 0.39 µM and the GI50 (NCI-H522 lung) was 0.0434 µM. For the same compound, the TGI (NCI-H522 lung) was 0.33 µM, the GI50 (LOX IMVI melanoma) was less than 0.01 µM and the TGI (LOX IMVI melanoma) was 0.0517 µM. For the same compound, the GI50 (IGROV1 ovarian) was 0.124 µM, the TGI (IGROV1 ovarian) was 1.89 µM and the GI50 (A549 NSCLC) was 0.0586 µM. For the same compound, the TGI (A549 NSCLC) was 14.9 µM, the GI50 (HCT-15 colon) was less than 0.01 µM and the TGI (HCT-15 colon) was 0.127 µM. It also gave a GI50 (HL-60(TB) leukemia) of 0.0206 µM, a GI50 (HOP-92 NSCLC) of 0.104 µM and a TGI (HOP-92 NSCLC) of 2.77 µM. The GI50 (SF-539 CNS) was less than 0.0131 µM, the TGI (SF-539 CNS) was 0.082 µM and the GI50 (MDA-MB-231 breast) was 0.131 µM. The TGI (MDA-MB-231 breast) was 0.647 µM, the GI50 (OVCAR-3 ovarian) was 0.03 µM and the GI50 (NCI-H460 lung) was 0.0186 µM. For the same compound, the TGI (NCI-H460 lung) was 0.147 µM, the GI50 (SNB-75 CNS) was 0.0683 µM and the TGI (SNB-75 CNS) was 0.414 µM. For the same compound, the GI50 (SNB-19 CNS) was 0.0424 µM, the TGI (SNB-19 CNS) was 0.959 µM and the GI50 (SF-295 CNS) was 0.172 µM. The TGI (SF-295 CNS) was 0.751 µM, the GI50 (K-562 leukemia) was 0.0478 µM and the GI50 (UACC-257 melanoma) was 0.253 µM. The TGI (UACC-257 melanoma) was 0.849 µM, the GI50 (SK-MEL-5 melanoma) was 0.0373 µM and the TGI (SK-MEL-5 melanoma) was 0.106 µM. It also gave a GI50 (SK-MEL-2 melanoma) of 0.482 µM, a TGI (SK-MEL-2 melanoma) of 1.96 µM and a GI50 (U251 CNS) of 0.0237 µM. The GI50 (HCT-116 colon) was less than 0.01 µM, the TGI (HCT-116 colon) was 0.027 µM and the GI50 (HCC-2998 colon) was 0.102 µM. The TGI (HCC-2998 colon) was 0.535 µM, the GI50 (RPMI-8226 leukemia) was 0.168 µM and the TGI (RPMI-8226 leukemia) was 0.983 µM. It also gave a GI50 (MOLT-4 leukemia) of 0.29 µM, a TGI (MOLT-4 leukemia) greater than 20.5 µM and a GI50 (DU-145 prostate) of less than 0.0187 µM. It also gave a TGI (DU-145 prostate) of 0.147 µM, a GI50 (SN12C renal) of 0.0221 µM and a TGI (SN12C renal) of 0.318 µM. It also gave a GI50 (SF-268 CNS) of 0.0341 µM, a TGI (SF-268 CNS) of 1.01 µM and a GI50 (MDA-MB-435) of 0.12 µM. It also gave a TGI (MDA-MB-435) of 0.527 µM, a GI50 (CCRF-CEM leukemia) of 0.0251 µM and a GI50 (MALME-3M melanoma) of 0.022 µM. The TGI (MALME-3M melanoma) was 0.205 µM, the GI50 (HOP-62 NSCLC) was 0.027 µM and the TGI (HOP-62 NSCLC) was 0.163 µM. For the same compound, the GI50 (NCI-H226 lung) was less than 0.015 µM, the TGI (NCI-H226 lung) was 0.121 µM and the GI50 (MDA-N) was 0.11 µM. For the same compound, the TGI (MDA-N) was 0.366 µM, the GI50 (786-0 renal) was less than 0.01 µM and the TGI (786-0 renal) was 0.0305 µM.
`COc1ccc(C2SC(N)=Nc3c2c(C)nn3C(=O)c2ccccc2O)cc1` (stereo unspecified) showed a TGI (SW-620 colon) greater than 10 µM, a TGI (EKVX NSCLC) greater than 10 µM and a TGI (COLO 205 colon) greater than 10 µM. It also gave a TGI (HT29 colon) greater than 10 µM, a TGI (BT-549 breast) greater than 10 µM and a TGI (SK-MEL-28 melanoma) greater than 10 µM. For the same compound, the TGI (RXF 393 renal) was greater than 10 µM, the TGI (NCI-H23 lung) was greater than 10 µM and the TGI (CAKI-1 renal) was greater than 10 µM. It also gave a TGI (NCI/ADR-RES ovarian) greater than 10 µM, a TGI (SK-OV-3 ovarian) greater than 10 µM and a TGI (UACC-62 melanoma) greater than 10 µM. For the same compound, the TGI (ACHN renal) was greater than 10 µM, the TGI (OVCAR-8 ovarian) was greater than 10 µM and the TGI (KM12 colon) was greater than 10 µM. For the same compound, the TGI (MCF7 breast) was greater than 10 µM, the TGI (PC-3 prostate) was greater than 10 µM and the TGI (T-47D breast) was greater than 10 µM. It also gave a TGI (OVCAR-5 ovarian) greater than 10 µM, a TGI (M14 melanoma) greater than 10 µM and a TGI (HS 578T breast) greater than 10 µM. The TGI (OVCAR-4 ovarian) was greater than 10 µM, the TGI (NCI-H522 lung) was greater than 10 µM and the TGI (LOX IMVI melanoma) was greater than 10 µM. For the same compound, the TGI (IGROV1 ovarian) was greater than 10 µM, the TGI (A549 NSCLC) was greater than 10 µM and the TGI (HCT-15 colon) was greater than 10 µM. For the same compound, the TGI (HL-60(TB) leukemia) was 5.21 µM, the TGI (HOP-92 NSCLC) was greater than 10 µM and the TGI (SF-539 CNS) was 0.628 µM. The TGI (MDA-MB-231 breast) was 9.79 µM, the TGI (OVCAR-3 ovarian) was 7.48 µM and the TGI (NCI-H460 lung) was greater than 10 µM. It also gave a TGI (SNB-19 CNS) greater than 10 µM, a TGI (SF-295 CNS) greater than 10 µM and a TGI (K-562 leukemia) of 3.85 µM. The TGI (UACC-257 melanoma) was greater than 10 µM, the TGI (SK-MEL-5 melanoma) was greater than 10 µM and the TGI (SK-MEL-2 melanoma) was greater than 10 µM. It also gave a TGI (U251 CNS) greater than 10 µM, a TGI (HCT-116 colon) greater than 10 µM and a TGI (HCC-2998 colon) greater than 10 µM. It also gave a TGI (RPMI-8226 leukemia) of 6.99 µM, a TGI (MOLT-4 leukemia) greater than 10 µM and a TGI (SN12C renal) greater than 10 µM. It also gave a TGI (SF-268 CNS) greater than 10 µM, a TGI (MDA-MB-435) greater than 10 µM and a TGI (CCRF-CEM leukemia) greater than 10 µM. It also gave a TGI (MALME-3M melanoma) greater than 10 µM, a TGI (HOP-62 NSCLC) greater than 10 µM and a TGI (NCI-H226 lung) greater than 10 µM. The TGI (MDA-N) was greater than 10 µM and the TGI (786-0 renal) was greater than 10 µM.
